Tests used:
CHP134 = CHP134 CellTiter-Glo (CTG) Assay; type: cell-based; conditions: Homo sapiens, CHP-134, 120 h; viable cells by CellTiter-Glo after 5 days
Protocol: […] cells (DSMZ-German Collection of Microorganisms and Cell Cultures, Braunschweig Germany) were cultured in RPMI 1640 supplemented with 10% fetal bovine serum, penicillin (100 U/ml), 1% L-Glutamine and streptomycin ([…]). Cells were seeded (200 cells/well) in 384-well plates for 16 hours. On day two, nine serial 1:3 compound dilutions were made in DMSO in a 96-well plate. The compounds were then further diluted into growth media using a BRAVO robot (Agilent, Santa Clara, CA). The diluted compounds were then added to quadruplicate wells in the 384-well cell plate and incubated at 37° C. and 5% CO2. After 5 days, relative numbers of viable cells were measured by luminescence using CellTiter-Glo® (Promega) according to the manufacturer's instructions and read on a SPARK Multimode Microplate Reader (Tecan, Mannedorf Switzerland). The IC50 calculations for the values reported in Table 2 were carried out using Prism 6.0 software (GraphPad, San Diego).

[1] = molecular target: T1, human recombinant Aurora B (Homo sapiens, UniProt Q96GD4); assay: Aurora B Kinase Biochemical Assay (ADP-Glo); conditions: selectivity ratio; Aurora B 10 nM, 114 μM ATP
T1 construct: purchased ThermoFisher PR9210B
T1 sequence (Q96GD4 whole entry): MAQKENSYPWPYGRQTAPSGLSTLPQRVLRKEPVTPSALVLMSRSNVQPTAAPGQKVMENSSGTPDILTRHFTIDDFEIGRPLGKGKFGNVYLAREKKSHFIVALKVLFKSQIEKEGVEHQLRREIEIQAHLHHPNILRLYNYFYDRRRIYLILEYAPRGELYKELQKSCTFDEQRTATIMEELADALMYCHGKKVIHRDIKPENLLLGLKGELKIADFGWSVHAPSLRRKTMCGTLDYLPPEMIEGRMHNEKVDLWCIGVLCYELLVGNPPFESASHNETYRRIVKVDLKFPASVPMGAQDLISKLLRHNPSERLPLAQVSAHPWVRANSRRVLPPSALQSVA
Protocol: Activity of human recombinant Aurora B (ThermoFisher, cat #PR9210B) was measured by quantification of adenosine diphosphate (ADP) using the ADP-Glo Kinase Assay Kit (Promega, cat #V9102). Test compounds were solubilized in dimethyl sulfoxide (DMSO) and dispensed into 384-well white polystyrene nonbinding plates (Greiner, cat #781094) using the Echo acoustic dispenser (Labcyte Inc.) in a 11-point 3-fold titration in duplicates. 5 μL of 20 nM Aurora B in assay buffer (50 mM HEPES, pH 7.5, 0.01% Brij-35, 0.01% BSA, 10 mM MgCl2, 1 mM EGTA, 1 mM DTT) was added to the plates. Test compounds and Aurora B were incubated for 15 minutes at room temperature (RT). Then 5 μL of a 228 μM adenosine triphosphate (ATP) (Promega, cat #V915B) and 9.3 μM Myelin Basic Protein (MBP) (SignalChem, cat #M42-51N) substrate solution in assay buffer was added and the reaction mixture was incubated for 2 hours at RT. The final concentration of Aurora b, ATP and MBP in the reactions were 10 nM, 114 μM and 4.7 μM, respectively. Reactions were stopped and the remaining ATP depleted by adding 10 μL of ADP-Glo reagent (Promega, cat #V912B) and incubating for 40 minutes at RT. The simultaneous conversion of the remaining ADP to ATP and measurement of the newly synthesized ATP was achieved by addition of 20 μL Kinase Detection reagent (Promega, cat #V9141B), incubation for 30 min at RT, and luminescence detection using the EnVision plate reader (PerkinElmer). Reactions lacking Aurora B were used as […]. Reactions containing DMSO alone were used as […]. The IC50 values reported in Table 2 were determined using four parameter non-linear regression curve fit.

COc1ccc2c(c1)[C@]1(C[C@H]1c1ccc3c(Nc4cc(-c5ccon5)ccc4OC)n[nH]c3c1)C(=O)N2 [Example 32, (1R,2S)-5′-methoxy-2-{3-[2-methoxy-5-(1,2-oxazol-3-yl)anilino]-1H-indazol-6-yl}spiro[cyclopropane-1,3′-indol]-2′(1′H)-one]
IC50 (CHP134): 106 nM
[Aurora B IC50 (nM)]/[PLK4 IC50 (nM)] [1]: 1218.8633

COc1ccc2c(c1)[C@]1(C[C@H]1c1ccc3c(Nc4cc(-c5cnn(CC(F)F)c5)ccc4OC)n[nH]c3c1)C(=O)N2 [Example 39, (1R,2S)-2-(3-{5-[1-(2,2-difluoroethyl)-1H-pyrazol-4-yl]-2-methoxyanilino}-1H-indazol-6-yl)-5′-methoxyspiro[cyclopropane-1,3′-indol]-2′(1′H)-one]
IC50 (CHP134): 202 nM
[Aurora B IC50 (nM)]/[PLK4 IC50 (nM)] [1]: 764.1

COc1ccc2c(c1)[C@]1(C[C@H]1c1ccc3c(Nc4nc(-c5cnn(C)c5)ncc4OC)n[nH]c3c1)C(=O)N2 [Example 31, (1R,2S)-5′-methoxy-2-(3-{[5-methoxy-2-(1-methyl-1H-pyrazol-4-yl)pyrimidin-4-yl]amino}-1H-indazol-6-yl)spiro[cyclopropane-1,3′-indol]-2′(1′H)-one]
IC50 (CHP134): 135 nM
[Aurora B IC50 (nM)]/[PLK4 IC50 (nM)] [1]: 429.3981

COc1ccc2c(c1)[C@]1(C[C@H]1c1ccc3c(Nc4nc(-c5cnco5)ncc4OC)n[nH]c3c1)C(=O)N2 [Example 40, (1R,2S)-5′-methoxy-2-(3-{[5-methoxy-2-(1,3-oxazol-5-yl)pyrimidin-4-yl]amino}-1H-indazol-6-yl)spiro[cyclopropane-1,3′-indol]-2′(1′H)-one]
IC50 (CHP134): 237 nM
[Aurora B IC50 (nM)]/[PLK4 IC50 (nM)] [1]: 410.7334

COc1ccc2c(c1)[C@]1(C[C@H]1c1ccc3c(Nc4nc(-c5cnn(C)c5)cnc4OC)n[nH]c3c1)C(=O)N2 [Example 24, (1R,2S)-5′-methoxy-2-(3-{[3-methoxy-6-(1-methyl-1H-pyrazol-4-yl)pyrazin-2-yl]amino}-1H-indazol-6-yl)spiro[cyclopropane-1,3′-indol]-2′(1′H)-one]
IC50 (CHP134): 49.9 nM
[Aurora B IC50 (nM)]/[PLK4 IC50 (nM)] [1]: 263.2352

COc1ccc2c(c1)[C@]1(C[C@H]1c1ccc3c(Nc4nc(N(C)C)ncc4OC)n[nH]c3c1)C(=O)N2 [Example 20, (1R,2S)-2-(3-{[2-(dimethylamino)-5-methoxypyrimidin-4-yl]amino}-1H-indazol-6-yl)-5′-methoxyspiro[cyclopropane-1,3′-indol]-2′(1′H)-one]
IC50 (CHP134): 440 nM
[Aurora B IC50 (nM)]/[PLK4 IC50 (nM)] [1]: 120

CCOc1ncc(-c2nccs2)nc1Nc1n[nH]c2cc([C@@H]3C[C@@]34C(=O)Nc3ccc(OC)cc34)ccc12 [Example 35, (1R,2S)-2-(3-{[3-ethoxy-6-(1,3-thiazol-2-yl)pyrazin-2-yl]amino}-1H-indazol-6-yl)-5′-methoxyspiro[cyclopropane-1,3′-indol]-2′(1′H)-one]
IC50 (CHP134): 13.8 nM
[Aurora B IC50 (nM)]/[PLK4 IC50 (nM)] [1]: 2740.5325

COc1ccc2c(c1)[C@]1(C[C@H]1c1ccc3c(Nc4cc(-c5cnn(C)c5)ncc4OC)n[nH]c3c1)C(=O)N2 [Example 27, (1R,2S)-5′-methoxy-2-(3-{[5-methoxy-2-(1-methyl-1H-pyrazol-4-yl)pyridin-4-yl]amino}-1H-indazol-6-yl)spiro[cyclopropane-1,3′-indol]-2′(1′H)-one]
IC50 (CHP134): 463 nM
[Aurora B IC50 (nM)]/[PLK4 IC50 (nM)] [1]: 954.5884

COc1ccc2c(c1)[C@]1(C[C@H]1c1ccc3c(Nc4cc(-c5nnn(C)n5)ccc4OC)n[nH]c3c1)C(=O)N2 [Example 21, (1R,2S)-5′-methoxy-2-{3-[2-methoxy-5-(2-methyl-2H-tetrazol-5-yl)anilino]-1H-indazol-6-yl}spiro[cyclopropane-1,3′-indol]-2′(1′H)-one]
IC50 (CHP134): 400 nM
[Aurora B IC50 (nM)]/[PLK4 IC50 (nM)] [1]: 990

CCOc1ncc(-c2nccs2)cc1Nc1n[nH]c2cc([C@@H]3C[C@@]34C(=O)Nc3ccc(OC)cc34)ccc12 [Example 41, (1R,2S)-2-(3-{[2-ethoxy-5-(1,3-thiazol-2-yl)pyridin-3-yl]amino}-1H-indazol-6-yl)-5′-methoxyspiro[cyclopropane-1,3′-indol]-2′(1′H)-one]
IC50 (CHP134): 131 nM
[Aurora B IC50 (nM)]/[PLK4 IC50 (nM)] [1]: 8707.7562

COc1ccc2c(c1)[C@]1(C[C@H]1c1ccc3c(Nc4cc(-c5cocn5)ccc4OC)n[nH]c3c1)C(=O)N2 [Example 16, (1R,2S)-5′-methoxy-2-{3-[2-methoxy-5-(1,3-oxazol-4-yl)anilino]-1H-indazol-6-yl}spiro[cyclopropane-1,3′-indol]-2′(1′H)-one]
IC50 (CHP134): 160 nM
[Aurora B IC50 (nM)]/[PLK4 IC50 (nM)] [1]: 730.6487

COc1ccc2c(c1)[C@]1(C[C@H]1c1ccc3c(Nc4ccc(S(C)(=O)=O)cc4OC)n[nH]c3c1)C(=O)N2 [Example 2, (1R,2S)-2-{3-[4-(methanesulfonyl)-2-methoxyanilino]-1H-indazol-6-yl}-5′-methoxyspiro[cyclopropane-1,3′-indol]-2′(1′H)-one]
IC50 (CHP134): 88.9 nM
[Aurora B IC50 (nM)]/[PLK4 IC50 (nM)] [1]: 229.2462

COc1ccc2c(c1)[C@]1(C[C@H]1c1ccc3c(Nc4cc5c(cc4OC)S(=O)(=O)CC5)n[nH]c3c1)C(=O)N2 [Example 1, 6-methoxy-5-({6-[(1R,2S)-5′-methoxy-2′-oxo-1′,2′-dihydrospiro[cyclopropane-1,3′-indol]-2-yl]-1H-indazol-3-yl}amino)-2,3-dihydro-1H-1-benzothiophene-1,1-dione]
IC50 (CHP134): 242 nM
[Aurora B IC50 (nM)]/[PLK4 IC50 (nM)] [1]: 791.6196

CCOc1ccc(-c2cnn(C)c2)cc1Nc1n[nH]c2cc([C@@H]3C[C@@]34C(=O)Nc3ccc(OC)cc34)ccc12 [Example 37, (1R,2S)-2-{3-[2-ethoxy-5-(1-methyl-1H-pyrazol-4-yl)anilino]-1H-indazol-6-yl}-5′-methoxyspiro[cyclopropane-1,3′-indol]-2′(1′H)-one]
IC50 (CHP134): 442 nM
[Aurora B IC50 (nM)]/[PLK4 IC50 (nM)] [1]: 27839.6436

COc1ccc2c(c1)[C@]1(C[C@H]1c1ccc3c(Nc4cc(-c5cnco5)ccc4OC)n[nH]c3c1)C(=O)N2 [Example 18, (1R,2S)-5′-methoxy-2-{3-[2-methoxy-5-(1,3-oxazol-5-yl)anilino]-1H-indazol-6-yl}spiro[cyclopropane-1,3′-indol]-2′(1′H)-one]
IC50 (CHP134): 170 nM
[Aurora B IC50 (nM)]/[PLK4 IC50 (nM)] [1]: 520

COc1ccc2c(c1)[C@]1(C[C@H]1c1ccc3c(Nc4cc(-c5cnn(C)c5)ccc4OC)n[nH]c3c1)C(=O)N2 [Example 11, (1R,2S)-5′-methoxy-2-{3-[2-methoxy-5-(1-methyl-1H-pyrazol-4-yl)anilino]-1H-indazol-6-yl}spiro[cyclopropane-1,3′-indol]-2′(1′H)-one]
IC50 (CHP134): 110 nM
[Aurora B IC50 (nM)]/[PLK4 IC50 (nM)] [1]: 1051.5384

COc1ccc2c(c1)[C@]1(C[C@H]1c1ccc3c(Nc4ccc(-c5nnn(C)n5)cc4OC)n[nH]c3c1)C(=O)N2 [Example 17, (1R,2S)-5′-methoxy-2-{3-[2-methoxy-4-(2-methyl-2H-tetrazol-5-yl)anilino]-1H-indazol-6-yl}spiro[cyclopropane-1,3′-indol]-2′(1′H)-one]
IC50 (CHP134): 370 nM
[Aurora B IC50 (nM)]/[PLK4 IC50 (nM)] [1]: 190

COc1ccc2c(c1)[C@]1(C[C@H]1c1ccc3c(Nc4cc(-c5cnn(C)c5)cnc4OC)n[nH]c3c1)C(=O)N2 [Example 26, (1R,2S)-5′-methoxy-2-(3-{[2-methoxy-5-(1-methyl-1H-pyrazol-4-yl)pyridin-3-yl]amino}-1H-indazol-6-yl)spiro[cyclopropane-1,3′-indol]-2′(1′H)-one]
IC50 (CHP134): 171 nM
[Aurora B IC50 (nM)]/[PLK4 IC50 (nM)] [1]: 921.6946

COc1ccc2c(c1)[C@]1(C[C@H]1c1ccc3c(Nc4cc(-c5cnn(CC(F)F)c5)cnc4OC)n[nH]c3c1)C(=O)N2 [Example 46, (1R,2S)-2-(3-((5-(1-(2,2-difluoroethyl)-1H-pyrazol-4-yl)-2-methoxypyridin-3-yl)amino)-1H-indazol-6-yl)-5′-methoxyspiro[cyclopropane-1,3′-indolin]-2′-one]
IC50 (CHP134): 370 nM
[Aurora B IC50 (nM)]/[PLK4 IC50 (nM)] [1]: 469.6557

CCS(=O)(=O)c1ccc(Nc2n[nH]c3cc([C@@H]4C[C@@]45C(=O)Nc4ccc(OC)cc45)ccc23)c(OC)c1 [Example 5, (1R,2S)-2-{3-[4-(ethanesulfonyl)-2-methoxyanilino]-1H-indazol-6-yl}-5′-methoxyspiro[cyclopropane-1,3′-indol]-2′(1′H)-one]
IC50 (CHP134): 39.1 nM
[Aurora B IC50 (nM)]/[PLK4 IC50 (nM)] [1]: 238.2702

Source: patent publication US20260108527A1, “POLO LIKE KINASE 4 INHIBITORS” (ORIC Pharmaceuticals, Inc., priority 2022, published 2026)
